From US4792569A, “Anticonvulsant phenethyl sulfamates” (McNeilab, Inc., priority 1987, dated 1988) come the findings set out here.

The test deals with tonic extensor seizure. Nature of the test: maximal electroshock test (MES), block of tonic extensor seizure in mice. The format is in vivo, male albino mice of the Swiss Webster strain. How it is done: The compounds of formula (I) are useful as anticonvulsant agents. The anticonvulsant activity of the subject compounds was determined using a standard "maximal electroshock test" (MES). In this test, activity is indicated by a block of the tonic extensor seizure caused by application of an electric shock to mice via corneal electrodes, as described by Swinyard et al. in J. Pharmacol. Exptl. Therap. 106, 319 (1952). A more recent description of current anticonvulsant drug screening is given in Swinyard et al. in Epilepsia 19, 409 (1978). Non-fasted male albino mice of the Swiss Webster strain (Royal-Hart Laboratories, New Hampton, N.Y.) weighing 18-24 grams were used in this test. Six to eight groups of ten mice each were used per ED50 determination. The test compounds were administered as aqueous solutions or suspensions prepared with Tween 80 and water. Testing was conducted at 30 minutes following intraperitoneal injection and at 60 minutes following oral administration of the test compound. A group of ten mice injected with saline 10 ml/kg i.p. and tested 30 minutes later served as controls. ED50 's were calculated using a computerized probit analysis procedure.

`NS(=O)(=O)OCCc1cccc([N+](=O)[O-])c1` [Example 6, 3-Nitrophenethylsulfamate]: the “MES Test % Inhibition” value was found to be 80% (100 mg/kg, 30 min i.p.) and 40% (200 mg/kg, 60 min p.o.).

As to `NS(=O)(=O)OCCc1ccccc1` [Example 1b, Phenethylsulfamate], the “MES Test % Inhibition” value stood at 90% (100 mg/kg, 30 min i.p.) and 100% (200 mg/kg, 60 min p.o.).

Turning to `NS(=O)(=O)OCCc1cccc(C(F)(F)F)c1` [Example 2, 3-(Trifluoromethyl)phenethylsulfamate], the “MES Test % Inhibition” value runs as follows: (100 mg/kg, 30 min i.p.) 70%; (200 mg/kg, 60 min p.o.) 100%.

Turning to `Cc1ccccc1CCOS(N)(=O)=O` [Example 5, 2-Methylphenethyl sulfamate], the “MES Test % Inhibition” value is, setting by setting: (100 mg/kg, 30 min i.p.) 90%; (200 mg/kg, 60 min p.o.) 70%.

`COc1ccc(CCOS(N)(=O)=O)cc1OC` [Example 3, 3,4-Dimethoxyphenethyl sulfamate]: the “MES Test % Inhibition” value (500 mg/kg i.p. in 30 min) was 30%.
